Data from PubChem BioAssay AID216 (DTP/NCI, 2004).
Where “and” joins values, the source holds several entries; their conditions need not be identical. Equal entries are not always repeated. Toxic doses and inconclusive results are not listed.

Test system: BDF1 mice, P288 leukemia ip, survival T/C
Assay: NCI In Vivo Anticancer Drug Screen. Data for tumor model P288 Lymphocytic Leukemia (intraperitoneal) in B6D2F1 (BDF1) mice
Conditions: endpoint: survival time, mean or median, higher = longer survival
Description: The antitumor activity of compounds was measured in mice bearing transplantable tumors. Survival or tumor size were measured and the results are expressed as the measurement made in the treated group (T) divided by the measurement made in the vehicle treated control group (C). The tumor model used in this assay is P288 Lymphocytic Leukemia (intraperitoneal) in B6D2F1 (BDF1) mice

[1] = dose: 25.0 mg/kg/injection, schedule: Q01DX Z (ip), vehicle: carboxymethylcellulose (CMC)
[2] = dose: 50.0 mg/kg/injection, schedule: Q01DX Z (ip), vehicle: carboxymethylcellulose (CMC)
[3] = dose: 100.0 mg/kg/injection, schedule: Q01DX Z (ip), vehicle: carboxymethylcellulose (CMC)
[4] = dose: 0.25 mg/kg/injection, schedule: Q01DX Z (ip), vehicle: carboxymethylcellulose (CMC)
[5] = dose: 0.5 mg/kg/injection, schedule: Q01DX Z (ip), vehicle: carboxymethylcellulose (CMC)
[6] = dose: 1.0 mg/kg/injection, schedule: Q01DX Z (ip), vehicle: carboxymethylcellulose (CMC)
[7] = dose: 25.0 mg/kg/injection, schedule: Q01DX010 (ip), vehicle: saline
[8] = dose: 50.0 mg/kg/injection, schedule: Q01DX010 (ip), vehicle: saline
[9] = dose: 100.0 mg/kg/injection, schedule: Q01DX010 (ip), vehicle: saline
[10] = dose: 200.0 mg/kg/injection, schedule: Q01DX010 (ip), vehicle: saline
[11] = dose: 400.0 mg/kg/injection, schedule: Q01DX010 (ip), vehicle: saline
[12] = dose: 8.0 micrograms/kg/injection, schedule: Q01DX Z (ip), vehicle: carboxymethylcellulose (CMC)
[13] = dose: 16.0 micrograms/kg/injection, schedule: Q01DX Z (ip), vehicle: carboxymethylcellulose (CMC)
[14] = dose: 31.0 micrograms/kg/injection, schedule: Q01DX Z (ip), vehicle: carboxymethylcellulose (CMC)
[15] = dose: 31.3 micrograms/kg/injection, schedule: Q01DX010 (ip), vehicle: saline
[16] = dose: 62.5 micrograms/kg/injection, schedule: Q01DX010 (ip), vehicle: saline
[17] = dose: 125.0 micrograms/kg/injection, schedule: Q01DX010 (ip), vehicle: saline
[18] = dose: 250.0 micrograms/kg/injection, schedule: Q01DX010 (ip), vehicle: saline

## Cn1cnc([N+](=O)[O-])c1Sc1ncnc2nc[nH]c12
dose: 12.5 mg/kg/injection, schedule: Q01DX Z (ip), vehicle: carboxymethylcellulose (CMC)
  T/C: 104 % of control
[1]
  T/C: 112 % of control
[2]
  T/C: 114 % of control
[3]
  T/C: 98 % of control

## Cn1cnc([N+](=O)[O-])c1Sc1nc(N)nc2nc[nH]c12
[4]
  T/C: 107 % of control
[5]
  T/C: 94 % of control
[6]
  T/C: 113 % of control
dose: 2.0 mg/kg/injection, schedule: Q01DX Z (ip), vehicle: carboxymethylcellulose (CMC)
  T/C: 105 % of control

## CC(=O)Nc1ccc2nc3ccc(NC(C)=O)cc3[n+](-c3ccccc3)c2c1
dose: 3.1 mg/kg/injection, schedule: Q01DX Z (ip), vehicle: carboxymethylcellulose (CMC)
  T/C: 115 % of control
dose: 6.25 mg/kg/injection, schedule: Q01DX Z (ip), vehicle: carboxymethylcellulose (CMC)
  T/C: 113 % of control
[7]
  T/C: 112 % of control
[8]
  T/C: 112 % of control and 95 % of control
[9]
  T/C: 95 % of control
[10]
  T/C: 90 % of control
[11]
  T/C: 100 % of control
dose: 400.0 mg/kg/injection, schedule: Q01DX Z (ip), vehicle: carboxymethylcellulose (CMC)
  T/C: 162 % of control

## CC[C@H](c1ccc(O)cc1)[C@@H](CC)c1ccc(O)cc1
dose: 8.0 mg/kg/injection, schedule: Q01DX Z (sc), vehicle: steriod suspending solution
  T/C: 90 % of control
dose: 16.0 mg/kg/injection, schedule: Q01DX Z (sc), vehicle: steriod suspending solution
  T/C: 93 % of control
dose: 31.0 mg/kg/injection, schedule: Q01DX Z (sc), vehicle: steriod suspending solution
  T/C: 97 % of control
dose: 62.5 mg/kg/injection, schedule: Q01DX Z (sc), vehicle: steriod suspending solution
  T/C: 88 % of control and 98 % of control
dose: 125.0 mg/kg/injection, schedule: Q01DX Z (sc), vehicle: steriod suspending solution
  T/C: 90 % of control

## N#Cc1cn(C2OC(CO)C(O)C2O)c2ncnc(N)c12 (stereo not given)
dose: 0.12 mg/kg/injection, schedule: Q01DX Z (ip), vehicle: carboxymethylcellulose (CMC)
  T/C: 114 % of control
[4]
  T/C: 106 % of control
[5]
  T/C: 93 % of control
[6]
  T/C: 106 % of control
[12]
  T/C: 103 % of control
[13]
  T/C: 103 % of control
[14]
  T/C: 97 % of control
[15]
  T/C: 155 % of control
[16]
  T/C: 105 % of control
[17]
  T/C: 105 % of control
[18]
  T/C: 105 % of control

## O[C@H](CN1CC1)[C@@H](O)CN1CC1
[12]
  T/C: 113 % of control
[13]
  T/C: 112 % of control
[14]
  T/C: 118 % of control
[15]
  T/C: 100 % of control
[16]
  T/C: 106 % of control
[17]
  T/C: 112 % of control
[18]
  T/C: 150 % of control
dose: 250.0 micrograms/kg/injection, schedule: Q01DX Z (ip), vehicle: carboxymethylcellulose (CMC)
  T/C: 170 % of control
dose: 500.0 micrograms/kg/injection, schedule: Q01DX Z (ip), vehicle: carboxymethylcellulose (CMC)
  T/C: 172 % of control and 200 % of control

## CC(=O)O[C@]1(C(C)=O)CC[C@H]2[C@@H]3C[C@H](C)C4=CC(=O)C=C[C@]4(C)[C@@]3(F)[C@@H](O)C[C@@]21C
dose: 2.5 mg/kg/injection, schedule: Q01DX Z (sc), vehicle: steriod suspending solution
  T/C: 95 % of control
dose: 5.0 mg/kg/injection, schedule: Q01DX Z (sc), vehicle: steriod suspending solution
  T/C: 97 % of control
dose: 10.0 mg/kg/injection, schedule: Q01DX Z (sc), vehicle: steriod suspending solution
  T/C: 101 % of control
dose: 12.5 mg/kg/injection, schedule: Q01DX010 (sc), vehicle: steriod suspending solution
  T/C: 100 % of control
dose: 20.0 mg/kg/injection, schedule: Q01DX Z (sc), vehicle: steriod suspending solution
  T/C: 107 % of control
dose: 25.0 mg/kg/injection, schedule: Q01DX010 (sc), vehicle: steriod suspending solution
  T/C: 106 % of control
dose: 40.0 mg/kg/injection, schedule: Q01DX Z (sc), vehicle: steriod suspending solution
  T/C: 118 % of control
dose: 50.0 mg/kg/injection, schedule: Q01DX010 (sc), vehicle: steriod suspending solution
  T/C: 112 % of control
dose: 80.0 mg/kg/injection, schedule: Q01DX Z (sc), vehicle: steriod suspending solution
  T/C: 100 % of control
dose: 100.0 mg/kg/injection, schedule: Q01DX010 (sc), vehicle: steriod suspending solution
  T/C: 93 % of control
dose: 160.0 mg/kg/injection, schedule: Q01DX Z (sc), vehicle: steriod suspending solution
  T/C: 90 % of control

## Cc1cc2nc3c(=O)[nH]c(=O)nc-3n(CC(O)C(O)C(O)C(O)CO)c2cc1C (stereo not given)
[7]
  T/C: 100 % of control
[8]
  T/C: 118 % of control
[9]
  T/C: 106 % of control and 94 % of control
[10]
  T/C: 106 % of control and 94 % of control
[11]
  T/C: 112 % of control

## CCCCn1cnc2c(=S)nc[nH]c21
dose: 16.0 mg/kg/injection, schedule: Q01DX010 (ip), vehicle: saline
  T/C: 88 % of control and 94 % of control
[1]
  T/C: 108 % of control
dose: 32.0 mg/kg/injection, schedule: Q01DX010 (ip), vehicle: saline
  T/C: 88 % of control and 100 % of control
[2]
  T/C: 102 % of control
dose: 64.0 mg/kg/injection, schedule: Q01DX010 (ip), vehicle: saline
  T/C: 88 % of control and 100 % of control
[3]
  T/C: 106 % of control and 113 % of control
dose: 128.0 mg/kg/injection, schedule: Q01DX010 (ip), vehicle: saline
  T/C: 100 % of control
dose: 200.0 mg/kg/injection, schedule: Q01DX Z (ip), vehicle: carboxymethylcellulose (CMC)
  T/C: 100 % of control

## Nc1nc(N)c2nc(CNc3ccc(C(=O)NC(CCC(=O)O)C(=O)O)cc3)cnc2n1 (stereo not given)
dose: 0.05 mg/kg/injection, schedule: Q01DX010 (ip), vehicle: other
  T/C: 100 % of control
dose: 0.1 mg/kg/injection, schedule: Q01DX010 (ip), vehicle: other
  T/C: 116 % of control
dose: 0.2 mg/kg/injection, schedule: Q01DX010 (ip), vehicle: other
  T/C: 177 % of control
dose: 0.4 mg/kg/injection, schedule: Q01DX010 (ip), vehicle: other
  T/C: 194 % of control

## C[C@]12CC[C@H](OC3OC(CO)C(O)C(O)C3O)C[C@H]1CC[C@@H]1[C@@H]2CC[C@]2(C)[C@@H](C3=CCOC3=O)CC[C@]12O (stereo not given in full)
dose: 0.12 mg/kg/injection, schedule: Q01DX Z (ip), vehicle: saline
  T/C: 97 % of control
dose: 0.25 mg/kg/injection, schedule: Q01DX Z (ip), vehicle: saline
  T/C: 97 % of control
dose: 0.5 mg/kg/injection, schedule: Q01DX Z (ip), vehicle: saline
  T/C: 101 % of control and 98 % of control
dose: 1.0 mg/kg/injection, schedule: Q01DX Z (ip), vehicle: saline
  T/C: 104 % of control and 110 % of control
dose: 2.0 mg/kg/injection, schedule: Q01DX Z (ip), vehicle: saline
  T/C: 105 % of control and 107 % of control
dose: 4.0 mg/kg/injection, schedule: Q01DX Z (ip), vehicle: saline
  T/C: 121 % of control and 94 % of control

## CN(C)c1ccc(/C=C\c2ccnc3ccccc23)cc1
dose: 6.25 mg/kg/injection, schedule: Q01DX Z (ip), vehicle: water
  T/C: 98 % of control
dose: 12.0 mg/kg/injection, schedule: Q01DX010 (ip), vehicle: saline
  T/C: 88 % of control
dose: 12.5 mg/kg/injection, schedule: Q01DX Z (ip), vehicle: water
  T/C: 98 % of control
dose: 18.0 mg/kg/injection, schedule: Q01DX010 (ip), vehicle: saline
  T/C: 88 % of control
dose: 25.0 mg/kg/injection, schedule: Q01DX Z (ip), vehicle: water
  T/C: 100 % of control
dose: 27.0 mg/kg/injection, schedule: Q01DX010 (ip), vehicle: saline
  T/C: 94 % of control
dose: 40.0 mg/kg/injection, schedule: Q01DX010 (ip), vehicle: saline
  T/C: 88 % of control
dose: 50.0 mg/kg/injection, schedule: Q01DX Z (ip), vehicle: water
  T/C: 105 % of control
dose: 100.0 mg/kg/injection, schedule: Q01DX Z (ip), vehicle: water
  T/C: 108 % of control
dose: 200.0 mg/kg/injection, schedule: Q01DX Z (ip), vehicle: water
  T/C: 90 % of control
